Measured values as given in patent publication EP0900211B1 (PHARMACIA & UPJOHN COMPANY, priority 1996, dated 1997).
Counter-ions that a name gives are not always drawn.

Molecular target: Stromelysin (Homo sapiens, UniProt P08254)
Assay: MMP inhibition, particle concentration fluorescence assay
Format: biochemical
Conditions: in vitro; fluorescein/biotin substrate; MMP buffer pH 7.5; room temperature
Protocol: Inhibitory activity is evaluated in one or more of the MMP enzymes (stromelysin, gelatinase, and collagenase) in vitro using particle concentration fluorescence assay. An inhibitor binds to MMP enzymes which prevents the degradation of a substrate by stromelysin, gelatinase, or collagenase. The substrate has attached to it a fluorescein and a biotin moiety. The intact substrate then binds to an avidin-coated particle via the biotin moiety. Once the particle is washed and dried, a fluorescent signal is generated since the fluorescent group is attached to the particle. Without an inhibitor present, the substrate is degraded by MMP enzymes and the fluorescein group is removed, therefore, no fluorescent signal can be detected. Testing compounds are dissolved in DMSO to the desired concentration, then the solutions are diluted to 1:5 with MMP buffer (50 mM Tris-HCl, pH 7.5; 150 mM NaCl; 0.02% NaN3). Serial two-fold dilutions of each compound are prepared. A concentrated, activated enzyme solution is transferred into each plate of the testing compounds, and the mixture is incubated at room temperature for 15 minutes. […] At this point, the substrate mixture is mixed with 0.1% avidin-coated polystyrene particles. After 15 minutes, the fluorescence values are measured following filtration and washing of the beads. Ki values are then calculated.

Chain of Stromelysin (P08254 100-477): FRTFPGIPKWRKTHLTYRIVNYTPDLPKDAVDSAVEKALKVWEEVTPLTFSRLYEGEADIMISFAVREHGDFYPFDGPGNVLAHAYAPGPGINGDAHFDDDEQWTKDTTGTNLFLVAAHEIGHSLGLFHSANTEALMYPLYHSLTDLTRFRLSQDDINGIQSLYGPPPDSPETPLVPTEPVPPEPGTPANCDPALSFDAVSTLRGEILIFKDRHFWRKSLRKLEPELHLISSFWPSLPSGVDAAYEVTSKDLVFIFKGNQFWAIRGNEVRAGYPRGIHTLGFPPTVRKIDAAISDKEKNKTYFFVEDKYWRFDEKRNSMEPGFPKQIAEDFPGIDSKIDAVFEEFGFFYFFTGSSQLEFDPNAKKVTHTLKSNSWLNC

Row | SMILES | Ki
1 | COC(=O)[C@H](CSCc1ccc(OC)cc1)NC(=O)Nc1n[nH]c(=S)s1 [Example 68, N-[[(4,5-Dihydro-5-thioxo-1,3,4-thiadiazol-2-yl)amino]carbonyl]-S-[(4-methoxyphenyl)methyl]-L-cysteine methyl ester] | 2050 nM
2 | O=C(Nc1n[nH]c(=S)s1)N[C@@H](Cc1ccccc1)C(=O)NCc1ccc(C(F)(F)F)cc1 [Example 52, α-[[[(4,5-Dihydro-5-thioxo-1,3,4-thiadiazol-2-yl)amino]carbonyl]-amino]-N-[(4-trifluoromethylphenyl)methyl]-(S)-benzenepropanamide] | 750 nM
3 | COC(=O)[C@H](Cc1ccc(O[Si](C)(C)C(C)(C)C)cc1)NC(=O)Nc1n[nH]c(=S)s1 [Example 47, N-[[(4,5-Dihydro-5-thioxo-1,3,4-thiadiazol-2-yl)amino]carbonyl]-O-[(1,1-dimethylethyl)dimethylsilyl]-L-tyrosine methyl ester] | 6370 nM
4 | O=C(Nc1n[nH]c(=S)s1)N[C@@H](CC1CCCCC1)C(=O)NCCc1ccccc1 [Example 62, α-[[[(4,5-Dihydro-5-thioxo-1,3,4-thiadiazol-2-yl)amino]carbonyl]amino]-N-(2-phenylethyl)-(S)-cyclohexanepropanamide] | 650 nM
5 | CNC(=O)[C@H](CSCc1ccccc1)NC(=O)Nc1n[nH]c(=S)s1 [Example 72, 2-[[[(4,5-Dihydro-5-thioxo-1,3,4-thiadiazol-2-yl)amino]carbonyl]-amino]-N-methyl-3-[(phenylmethyl)thio]-(R)-propanamide] | 1050 nM
6 | CNC(=O)[C@H](Cc1c[nH]c2ccccc12)NC(=O)Nc1n[nH]c(=S)s1 [Example 13, α-[[[(4,5-Dihydro-5-thioxo-1,3,4-thiadiazol-2-yl)amino]carbonyl]-amino]-N-methyl-(S)-1H-indole-3-propanamide] | 2500 nM
7 | O=C(Nc1n[nH]c(=S)s1)N[C@@H](Cc1ccc([N+](=O)[O-])cc1)C(=O)NCCc1ccccc1 [Example 34, α-[[[(4,5-Dihydro-5-thioxo-1,3,4-thiadiazol-2-yl)amino]carbonyl]amino]-4-nitro-N-(2-phenylethyl)-(S)-benzenepropanamide] | 210 nM
8 | CCCCNC(=O)[C@H](Cc1ccc([N+](=O)[O-])cc1)NC(=O)Nc1n[nH]c(=S)s1 [Example 35, N-Butyl-α-[[[(4,5-dihydro-5-thioxo-1,3,4-thiadiazol-2-yl)amino]carbonyl]amino]-4-nitro-(S)-benzenepropanamide] | 350 nM
9 | COC(=O)[C@H](CSCc1ccccc1)NC(=O)Nc1n[nH]c(=S)s1 [Example 71, N-[[(4,5-Dihydro-5-thioxo-1,3,4-thiadiazol-2-yl)amino]carbonyl]-S-(phenylmethyl)-L-cysteine methyl ester] | 2510 nM
10 | O=C(Nc1n[nH]c(=S)s1)N[C@@H](Cc1ccccc1)C(=O)NCCCO [Example 41, α-[[[(4,5-Dihydro-5-thioxo-1,3,4-thiadiazol-2-yl)amino]-carbonyl]amino]-N-(3-hydroxypropyl)-(S)-benzenepropanamide] | 1120 nM
11 | O=C(Nc1n[nH]c(=S)s1)N[C@@H](Cc1ccccc1)C(=O)NCc1ccc([N+](=O)[O-])cc1 [Example 53, α-[[[(4,5-Dihydro-5-thioxo-1,3,4-thiadiazol-2-yl)amino]carbonyl]amino]-N-[(4-nitrophenyl)methyl]-(S)-benzenepropanamide] | 1310 nM
12 | O=C(Nc1n[nH]c(=S)s1)N[C@@H](Cc1ccccc1)C(=O)NCc1ccccn1 [Example 7, α-[[[(4,5-Dihydro-5-thioxo-1,3,4-thiadiazol-2-yl)amino]carbonyl]-amino]-N-(2-pyridinylmethyl)-(S)-benzenepropanamide] | 1100 nM
13 | CNC(=O)[C@H](COC(C)(C)C)NC(=O)Nc1n[nH]c(=S)s1 [Example 73, 2-[[[(4,5-Dihydro-5-thioxo-1,3,4-thiadiazol-2-yl)amino]carbonyl]-amino]-3-(1,1-dimethylethoxy)-N-methyl-(S)-propanamide] | 1600 nM
14 | O=C(Nc1n[nH]c(=S)s1)N[C@@H](Cc1ccccc1)C(=O)N1CCN(c2ccccc2)CC1 [Example 50, (S)-1-[2-[[[(4,5-Dihydro-5-thioxo-1,3,4-thiadiazol-2-yl)amino]carbonyl]amino]-1-oxo-3-phenylpropyl]-4-phenylpiperazine] | 1680 nM
15 | O=C(Nc1n[nH]c(=S)s1)N[C@@H](Cc1ccccc1)C(=O)NCc1cccnc1 [Example 18, α-[[[(4,5-Dihydro-5-thioxo-1,3,4-thiadiazol-2-yl)amino]carbonyl]-amino]-N-(3-pyridinylmethyl)-(S)-benzenepropanamide] | 2010 nM
16 | O=C(Nc1n[nH]c(=S)s1)N[C@@H](Cc1ccccc1)C(=O)NCCN1CCOCC1 [Example 19, α-[[[(4,5-Dihydro-5-thioxo-1,3,4-thiadiazol-2-yl)amino]carbonyl]-amino]-N-[2-(4-morpholinyl)ethyl]-(S)-benzenepropanamide] | 1990 nM
17 | COC(=O)[C@H](Cc1ccc(-c2ccccc2)cc1)NC(=O)Nc1n[nH]c(=S)s1 [Example 78, α-[[[(4,5-Dihydro-5-thioxo-1,3,4-thiadiazol-2-yl)amino]carbonyl]amino]-(S)-(1,1'-biphenyl)-4-propanoic acid methyl ester] | 3020 nM
18 | CCOC(=O)CCNC(=O)[C@H](Cc1ccccc1)NC(=O)Nc1n[nH]c(=S)s1 [Example 42, N-[[(4,5-Dihydro-5-thioxo-1,3,4-thiadiazol-2-yl)amino]carbonyl]-L-phenylalanyl-β-alanine ethyl ester] | 780 nM

Row | SMILES | Ki
19 | CNC(=O)[C@H](Cc1ccc(C(C)(C)C)cc1)NC(=O)Nc1n[nH]c(=S)s1 [Example 81, α-[[[(4,5-dihydro-5-thioxo-1,3,4-thiadiazol-2-yl)amino]carbonyl]amino]-4-(1,1-dimethylethyl)-N-methyl-(S)-benzenepropanamide] | 1820 nM
20 | O=C(Nc1n[nH]c(=S)s1)N[C@@H](Cc1ccccc1)C(=O)NCCc1ccccc1 [Example 6, α-[[[(4,5-Dihydro-5-thioxo-1,3,4-thiadiazol-2-yl)amino]carbonyl]-amino]-N-(2-phenylethyl)-(S)-benzenepropanamide] | 300 nM
21 | CC(C)C[C@H](NC(=O)Nc1n[nH]c(=S)s1)C(=O)NCc1ccccc1 [Example 29, 2-[[[(4,5-Dihydro-5-thioxo-1,3,4-thiadiazol-2-yl)amino]carbonyl]amino]-4-methyl-N-(phenylmethyl)-(S)-pentanamide] | 4420 nM
22 | O=C(Nc1n[nH]c(=S)s1)N[C@@H](Cc1ccccc1)C(=O)NCc1ccncc1 [Example 17, α-[[[(4,5-Dihydro-5-thioxo-1,3,4-thiadiazol-2-yl)amino]-carbonyl]amino]-N-(4-pyridinylmethyl)-(S)-benzenepropanamide] | 1270 nM
23 | COC(=O)[C@H](Cc1ccc([N+](=O)[O-])cc1)NC(=O)Nc1n[nH]c(=S)s1 [Example 32, N-[[(4,5-Dihydro-5-thioxo-1,3,4-thiadiazol-2-yl)amino]carbonyl]-L-(4-nitrophenyl)alanine methyl ester] | 1870 nM
24 | O=C(O)CCNC(=O)[C@H](Cc1ccccc1)NC(=O)Nc1n[nH]c(=S)s1 [Example 44] | 1080 nM
25 | COC(=O)[C@H](Cc1ccc(OC)cc1)NC(=O)Nc1n[nH]c(=S)s1 [Example 30, N-[[(4,5-Dihydro-5-thioxo-1,3,4-thiadiazol-2-yl)amino]carbonyl]-O-methyl-L-tyrosine methyl ester] | 2750 nM
26 | CNC(=O)[C@H](CSCc1ccc(C)cc1)NC(=O)Nc1n[nH]c(=S)s1 [Example 70, 2-[[[(4,5-Dihydro-5-thioxo-1,3,4-thiadiazol-2-yl)amino]-carbonyl]amino]-N-methyl-3-[[(4-methylphenyl)methyl]thio]-(R)-propanamide] | 1200 nM
27 | COC(=O)[C@@H](NC(=O)Nc1n[nH]c(=S)s1)[C@@H](C)OCc1ccccc1 [Example 64, N-[[(4,5-Dihydro-5-thioxo-1,3,4-thiadiazol-2-yl)amino]carbonyl]-O-(phenylmethyl)-L-threonine methyl ester] | 9560 nM
28 | CNC(=O)[C@H](CO[Si](C)(C)C(C)(C)C)NC(=O)Nc1n[nH]c(=S)s1 [Example 46, 2-[[[(4,5-Dihydro-5-thioxo-1,3,4-thiadiazol-2-yl)amino]carbonyl]amino]-3-[(1,1-dimethylethyl)-dimethylsilyloxy]-N-methyl-(S)-propanamide] | 750 nM
29 | COC(=O)[C@H](CSCc1ccc(C)cc1)NC(=O)Nc1n[nH]c(=S)s1 [Example 65, N-[[(4,5-Dihydro-5-thioxo-1,3,4-thiadiazol-2-yl)amino]carbonyl]-S-[(4-methylphenyl)methyl]-L-cysteine methyl ester] | 2550 nM
30 | O=C(Nc1n[nH]c(=S)s1)N[C@@H](Cc1ccccc1)C(=O)N1CCNCC1 [Example 56, (S)-1-[2-[[[(4,5-Dihydro-5-thioxo-1,3,4-thiadiazol-2-yl)amino]carbonyl]amino]-1-oxo-3-phenylpropyl]piperazine trifluoroacetate] | 5270 nM
31 | O=C(Nc1n[nH]c(=S)s1)N[C@@H](Cc1ccccc1)C(=O)NCCCc1ccccc1 [Example 51, α-[[[(4,5-Dihydro-5-thioxo-1,3,4-thiadiazol-2-yl)amino]carbonyl]amino]-N-(3-phenylpropyl)-(S)-benzenepropanamide] | 1020 nM
32 | COC(=O)[C@H](Cc1ccc(N)cc1)NC(=O)Nc1n[nH]c(=S)s1 [Example 59, N-[[(4,5-Dihydro-5-thioxo-1,3,4-thiadiazol-2-yl)amino]carbonyl]-L-(4-aminophenyl)alanine methyl ester] | 2950 nM
33 | CNC(=O)CCNC(=O)[C@H](Cc1ccccc1)NC(=O)Nc1n[nH]c(=S)s1 [Example 43] | 1340 nM
34 | O=C(Nc1n[nH]c(=S)s1)N[C@@H](Cc1ccccc1)C(=O)N1CCN(C(c2ccccc2)c2ccccc2)CC1 [Example 55, (S)-1-[2-[[[(4,5-Dihydro-5-thioxo-1,3,4-thiadiazol-2-yl)amino]carbonyl]amino]-1-oxo-3-phenylpropyl]-4-(benzhydryl)piperazine] | 4250 nM
35 | COC(=O)[C@@H](NC(=O)Nc1n[nH]c(=S)s1)[C@@H](C)OC(C)(C)C [Example 74] | 1870 nM
